Measured values as given in article PMC11073428, “The activity of pyrazolo[4,3-e][1,2,4]triazine and pyrazolo[4,3-e]tetrazolo[1,5-b][1,2,4]triazine sulphonamide derivatives in monolayer and spheroid breast cancer cell cultures” (Journal of Enzyme Inhibition and Medicinal Chemistry, 2024).

Assays:
[1] = tested on: caspase 3/7 in MCF-7 cells; experiment: Activity of caspase 3/7, MCF-7; type: cell-based, human; settings: MCF-7, 24 h; cell line does not express caspase 3
Procedure: (§1) MCF-7 and MDA-MB-231 cells were plated in six-well plates at density 1 × 10^6 and cultured in DMEM for 24 h. […] Then to identify the involvement of caspase family in inducing apoptosis, cells were pre-treated with Z-VAD-FMK (100 µM) 2 h before adding compounds[28]. The activation of caspases 9, 10, and 3/7 was detected as described before.

[2] = in vitro; settings: human
[3] = tested on: caspase 9 in MCF-7 cells; experiment: Activity of caspase 9, MCF-7; type: cell-based, human; settings: MCF-7, 0.5 µM, 24 h
Procedure: as §1

[4] = tested on: beclin-1 in MCF-7 cells; experiment: Anti-beclin-1 antibody flow cytometry, MCF-7; type: cell-based, human; settings: MCF-7, 0.5 µM, 24 h
Procedure: (§2) The fixation and permeabilisation were performed as described above. Cells were resuspended in 100 µL of diluted primary antibody (1:100 in PBS, anti-beclin 1 antibody (2A4) #ab114071, Abcam, Cambridge, UK) and incubated 30 min in the dark at RT. The cells were washed three times by centrifugation in PBS. Then to each probe, 100 µL of diluted fluorochrome-labelled secondary antibody (1:100 in PBS; goat anti-mouse IgG H&L – Alexa Fluor 488 #ab150113, Abcam, Cambridge, UK) was added and incubated 30 min in dark at RT. Then, cells were rinsed with 2.5 mL PBS. In the last step, supernatant was discarded and cells were resuspended in 300 µL PBS and pipetted. The analysis was carried out by flow cytometry.

[5] = tested on: ROS in MCF-7 cells; experiment: Total ROS activity, flow cytometry, MCF-7; type: cell-based, human; settings: for cells that generated ROS: 24 h
Procedure: In brief, cells were washed two times with cold PBS solution and incubated in a solution of ROS Green dye in Assay Buffer and incubated for 1 h in optimal cell growth parameters, protected from light. After incubation, cells were washed with assay buffer. Subsequently, fluorescence emission intensities at 490 nm excitation and 520 nm emission were recorded in 500 μL assay buffer using flow cytometer BD FACSCanto II flow cytometer and FACSDiva software (BD Biosciences Systems, San Jose, CA).

[6] = tested on: p53 in MDA-MB-231 cells; experiment: Anti-p53 antibody flow cytometry, MDA-MB-231; type: cell-based, human; settings: MDA-MB-231, 0.25 µM and 0.5 µM, 24 h
Procedure: (§3) To evaluate the molecular mechanism of induction of apoptosis of tested compounds, the level of p53, NF-κB, mTOR, Bax, and beclin-1 was measured using appropriate antibody according to the manufacturer’s instruction. In brief, tryspinised cells were centrifuged, then supernatant was discarded, and cells were suspended in 4% FA (formaldehyde). Prepared samples were incubated 15 min at RT. Following incubation, the 2.5 mL PBS was added to each sample and centrifuged. Then, supernatant was discarded, and cells were resuspended in 90% ice-cold methanol to perform permeabilisation and left for 1 h in ice. To remove methanol, cells were rinsed with excess PBS by centrifugation. Following centrifugation, the supernatant was discarded. Then, cells were resuspended in 100 µL of appropriate diluted (1:100 in PBS) antibody conjugate (p53 (7F5) Rabbit mAb – Alexa Fluor 488 Conjugate #5429 Cell Signalling Technology, Danvers, MA; NF-κB p65 (D14E12) XP Rabbit mAb – Alexa Fluor 647 Conjugate #8801 Cell Signalling Technology, Danvers, MA; mTOR (7C10) Rabbit mAB – Alexa Fluor 647 #5048 Cell Signalling Technology, Danvers, MA; FITC Anti-Bax antibody (T22-A) #ab139543, Abcam, Cambridge, UK) and incubated 1 h in the dark at RT. Afterwards, cells were washed by centrifugation in 2 mL of incubation buffer. Finally, supernatant was removed and 300 µL PBS was added to each sample and pipetted. […]

[7] = tested on: caspase 10 in MCF-7 cells; experiment: Activity of caspase 10, MCF-7; type: cell-based, human; settings: 24 h
Procedure: as §1

[8] = tested on: MCF-7 spheroids; experiment: 3D spheroid culture, MCF-7; type: cell-based, human
Procedure: The 3D cell culture was carried out with 6-Well Bio-Assembler Kit in accordance with the manufacturer’s instructions (Greiner Bio-One GmbH, Frickenhausen, Germany). First, MCF-7 and MDA-MB-231 were cultured in 2D using procedure and supplied to 80% confluency and treated with nanoshuttle at concentration of 1 µL/10 000 cell and incubated overnight. Following incubation, the medium was removed, and the cells were detached by trypsin–EDTA solution and resuspended in DMEM. The cells were counted using Scepter 2.0 Handheld Automated Cell Counter (Merck, Darmstadt, Germany) and plated at the concentration 1 × 10^6 cells per well in six-well plate. Then, cells were gently tilted in the flask to evenly distribute the nanoparticle and incubated (37 °C, 5% CO2, 95–98% humidity) for 1 h with magnet on the top of the plate. The cells self-assemble to spheroids. The obtained 3D cell culture was incubated until analysis.
The visualisation of the morphological changes in 3D cell culture of MCF-7 and MDA-MB-231 was evaluated using microscope (Nikon Eclipse Ti, Tokyo, Japan).
The mean ± standard deviation (SD) for all data is presented. One-way and two-way analysis of variance (ANOVA) was conducted followed by Dunnett’s test. GraphPad 8.0.1 Prism software (GraphPad Software, San Diego, CA) was used for calculation. The analysis of spheroids area was carried out using ImageJ software from the NIH (Bethesda, MD).

[9] = tested on: p53 in MCF-7 cells; experiment: Anti-p53 antibody flow cytometry, MCF-7; type: cell-based, human; settings: MCF-7, 0.25 µM and 0.5 µM, 24 h
Procedure: as §3

[10] = tested on: Bax in MDA-MB-231 cells; experiment: Anti-Bax antibody flow cytometry, MDA-MB-231; type: cell-based, human; settings: 24 h
Procedure: To evaluate the molecular mechanism of induction of apoptosis of tested compounds, the level of p53, NF-κB, mTOR, Bax, and beclin-1 was measured using appropriate antibody according to the manufacturer’s instruction. In brief, tryspinised cells were centrifuged, then supernatant was discarded, and cells were suspended in 4% FA (formaldehyde). Prepared samples were incubated 15 min at RT. Following incubation, the 2.5 mL PBS was added to each sample and centrifuged. Then, supernatant was discarded, and cells were resuspended in 90% ice-cold methanol to perform permeabilisation and left for 1 h in ice. To remove methanol, cells were rinsed with excess PBS by centrifugation. Following centrifugation, the supernatant was discarded. Then, cells were resuspended in 100 µL of appropriate diluted (1:100 in PBS) antibody conjugate (p53 (7F5) Rabbit mAb – Alexa Fluor 488 Conjugate #5429 Cell Signalling Technology, Danvers, MA; NF-κB p65 (D14E12) XP Rabbit mAb – Alexa Fluor 647 Conjugate #8801 Cell Signalling Technology, Danvers, MA; mTOR (7C10) Rabbit mAB – Alexa Fluor 647 #5048 Cell Signalling Technology, Danvers, MA; FITC Anti-Bax antibody (T22-A) #ab139543, Abcam, Cambridge, UK) and incubated 1 h in the dark at RT. Afterwards, cells were washed by centrifugation in 2 mL of incubation buffer. Finally, supernatant was removed and 300 µL PBS was added to each sample and pipetted. The analysis was performed by flow cytometry (BD FACSCanto II, Becton Dickinson Biosciences Systems, San Jose, CA) using FACSDiva software ver. 6.1.3.

[11] = tested on: caspase 10 in MDA-MB-231 cells; experiment: Activity of caspase 10, MDA-MB-231; type: cell-based, human; settings: 24 h
Procedure: as §1

[12] = tested on: beclin-1 in MDA-MB-231 cells; experiment: Anti-beclin-1 antibody flow cytometry, MDA-MB-231; type: cell-based, human; settings: MDA-MB-231, 0.5 µM, 24 h
Procedure: as §2

**Q.** For `Cc1nn(-c2ccc(S(=O)(=O)N[C@@H](CO)Cc3ccccc3)cc2)c2nn3nnnc3nc12` [Compound 3b, (R)-N-(1-hydroxy-3-phenylpropan-2-yl)-4-(7-methyl-5H-pyrazolo[4,3-e]tetrazolo[1,5-b][1,2,4]triazin-6-yl)benzenesulfonamide], which “effect on executive caspase 7 (in words)” value [1] is on record?
**A.** increase in activity of executive caspase 7

**Q.** And the IC50 at 24 h [2]?
**A.** 2.3 ± 0.04 µM

**Q.** And the “percentage of active form of caspase 9” value [3]?
**A.** 72.1 ± 2.3%

**Q.** What about the “cells with active beclin-1” value [4] of the same molecule?
**A.** 13.9 ± 2.6%

**Q.** And the “cells that generated ROS” value ([5]; MCF-7, 0.25 µM)?
**A.** 19.8 ± 2.2%

**Q.** What about the “increase of ROS level compared to control” value ([5]; MCF-7, 0.5 µM) of the same molecule?
**A.** 12 times

**Q.** And the “cells that generated ROS” value ([5]; MCF-7, 0.5 µM)?
**A.** 27.5 ± 1.3%

**Q.** And the “effect on p53 (in words)” value [6]?
**A.** activates p53

**Q.** What about the “cells with active caspase 10” value ([7]; MCF-7, 0.25 µM) of the same molecule?
**A.** 12.9 ± 0.8%

**Q.** What about the “cells with active caspase 10” value ([7]; MCF-7, 0.5 µM) of the same molecule?
**A.** 70.8 ± 1.1%

**Q.** What about the “effect on spheroid formation (in words)” value ([8]; 0.25 µM and 0.5 µM) of the same molecule?
**A.** slower formation of spheroids compared to untreated cells

**Q.** And the “spheroids smaller compared to the control” value ([8]; 0.5 µM, 24 h)?
**A.** approximately 86.37 ± 7.7%

**Q.** And the “effect on p53 (in words)” value [9]?
**A.** activates p53

**Q.** What about the “cells with active Bax” value ([10]; MDA-MB-231, 0.25 µM) of the same molecule?
**A.** 6.3 ± 0.4%

**Q.** What about the “cells with active Bax” value ([10]; MDA-MB-231, higher concentration (0.5 µM)) of the same molecule?
**A.** 16.9 ± 3.7%

**Q.** And the “cells with active caspase 10” value ([11]; MDA-MB-231, 0.25 µM)?
**A.** 21.2 ± 1.4%

**Q.** And the “cells with active caspase 10” value ([11]; MDA-MB-231, 0.5 µM)?
**A.** 50.8 ± 3.8%

**Q.** What about the melting point of the same molecule?
**A.** 170 to 172 °C

**Q.** What about the “cells with active beclin-1” value [12] of the same molecule?
**A.** 8.1 ± 0.1%
